According to ChEMBL document CHEMBL1909046, “DrugMatrix in vitro pharmacology data”:

What was measured:
[1] = target: T1, Neutrophil elastase (Homo sapiens, UniProt P08246); format: tissue-based;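 further: inhibition of neutrophil elastase enzyme activity, measured with a p-nitroanilide-linked peptide substrate; in other assays of this panel Not Active means under 50% inhibition at 10 µM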
T1 sequence (P08246 whole entry): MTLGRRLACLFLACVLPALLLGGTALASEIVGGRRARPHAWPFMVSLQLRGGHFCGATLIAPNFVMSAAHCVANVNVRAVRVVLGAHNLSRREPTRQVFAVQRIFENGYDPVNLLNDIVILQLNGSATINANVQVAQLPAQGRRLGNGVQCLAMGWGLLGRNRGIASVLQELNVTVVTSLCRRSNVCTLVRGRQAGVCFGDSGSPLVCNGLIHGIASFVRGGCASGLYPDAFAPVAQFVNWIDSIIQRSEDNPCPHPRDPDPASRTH

[2] = target: Glycine receptor (Rattus norvegicus, UniProt P22771+P24524+P07727+P20781); format: cell membranes, Wistar, Spinal cord, Membrane; further: in other assays of this panel Not Active means under 50% inhibition at 10 µM
[3] = target: Tyrosine-protein kinase Fyn (Homo sapiens, UniProt P06241); experiment: biochemical; format: cell-based, Insect cells; settings: insect cells;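 further: enzymatic inhibition of Fyn kinase activity measured with Poly(Glu:Tyr) as the phosphorylation substrate; in other assays of this panel Not Active means under 50% inhibition at 10 µM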
[4] = target: Estrogen receptor beta (Homo sapiens, UniProt Q92731); settings: sf9; further: in other assays of this panel Not Active means under 50% inhibition at 10 µM
[5] = target: Kappa-type opioid receptor (Homo sapiens, UniProt P41145); experiment: DRUGMATRIX: Opiate kappa (OP2, KOP) radioligand binding (ligand: [3H] Diprenorphine); format: cell membranes, HEK293, Membrane; settings: hek293; Not Active = under 50% inhibition at 10 µM
[6] = target: Sodium-dependent dopamine transporter (Homo sapiens, UniProt Q01959); experiment: DRUGMATRIX: Dopamine Transporter radioligand binding (ligand: [125I] RTI-55); format: cell membranes, CHO-K1, Membrane; settings: cho-k1; Not Active = under 50% inhibition at 10 µM
[7] = DRUGMATRIX: GABAA, Muscimol, Central radioligand binding (ligand: [3H] Muscimol); format: cell membranes, Rattus norvegicus, Wistar, Brain, Membrane; settings: Not Active = under 50% inhibition at 10 µM
[8] = target: T2, Glucocorticoid receptor (Homo sapiens, UniProt P04150); settings: hela s3; further: in other assays of this panel Not Active means under 50% inhibition at 10 µM
T2 sequence (P04150 whole entry): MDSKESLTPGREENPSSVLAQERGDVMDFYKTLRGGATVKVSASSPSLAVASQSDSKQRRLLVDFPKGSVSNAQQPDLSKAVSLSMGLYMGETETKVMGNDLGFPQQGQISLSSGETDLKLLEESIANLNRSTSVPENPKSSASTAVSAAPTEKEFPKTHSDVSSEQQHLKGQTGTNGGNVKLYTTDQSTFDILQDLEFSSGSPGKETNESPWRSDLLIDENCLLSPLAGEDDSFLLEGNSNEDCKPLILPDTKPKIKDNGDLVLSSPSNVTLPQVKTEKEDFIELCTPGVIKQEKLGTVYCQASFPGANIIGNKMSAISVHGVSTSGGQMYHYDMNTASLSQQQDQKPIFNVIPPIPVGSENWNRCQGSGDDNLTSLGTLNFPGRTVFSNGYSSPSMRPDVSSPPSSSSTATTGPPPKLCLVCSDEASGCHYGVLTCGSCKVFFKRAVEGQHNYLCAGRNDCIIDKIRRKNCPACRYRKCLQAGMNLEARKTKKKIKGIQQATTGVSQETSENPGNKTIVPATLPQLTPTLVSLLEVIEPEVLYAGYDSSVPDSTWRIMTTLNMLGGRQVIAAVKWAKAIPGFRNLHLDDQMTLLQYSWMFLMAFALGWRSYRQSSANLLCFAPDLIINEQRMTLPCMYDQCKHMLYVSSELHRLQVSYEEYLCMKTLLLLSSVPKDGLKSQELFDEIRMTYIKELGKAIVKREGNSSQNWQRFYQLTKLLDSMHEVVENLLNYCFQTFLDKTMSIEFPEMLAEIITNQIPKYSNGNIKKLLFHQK

Chain of Tyrosine-protein kinase Fyn (P06241 whole entry): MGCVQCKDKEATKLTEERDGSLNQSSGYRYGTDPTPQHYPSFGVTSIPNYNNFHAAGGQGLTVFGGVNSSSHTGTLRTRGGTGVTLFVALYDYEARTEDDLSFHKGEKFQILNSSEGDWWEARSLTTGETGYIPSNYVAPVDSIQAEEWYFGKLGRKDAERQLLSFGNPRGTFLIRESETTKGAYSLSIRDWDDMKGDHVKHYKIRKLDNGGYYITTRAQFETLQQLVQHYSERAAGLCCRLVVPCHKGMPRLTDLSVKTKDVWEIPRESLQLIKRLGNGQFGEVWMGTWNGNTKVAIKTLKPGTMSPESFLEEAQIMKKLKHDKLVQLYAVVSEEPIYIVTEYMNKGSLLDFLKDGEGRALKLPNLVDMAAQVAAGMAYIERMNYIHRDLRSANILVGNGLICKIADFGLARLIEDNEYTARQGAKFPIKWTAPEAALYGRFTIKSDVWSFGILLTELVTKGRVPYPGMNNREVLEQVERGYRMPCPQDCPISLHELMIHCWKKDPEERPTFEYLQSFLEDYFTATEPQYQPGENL
Chain of Sodium-dependent dopamine transporter (Q01959 whole entry): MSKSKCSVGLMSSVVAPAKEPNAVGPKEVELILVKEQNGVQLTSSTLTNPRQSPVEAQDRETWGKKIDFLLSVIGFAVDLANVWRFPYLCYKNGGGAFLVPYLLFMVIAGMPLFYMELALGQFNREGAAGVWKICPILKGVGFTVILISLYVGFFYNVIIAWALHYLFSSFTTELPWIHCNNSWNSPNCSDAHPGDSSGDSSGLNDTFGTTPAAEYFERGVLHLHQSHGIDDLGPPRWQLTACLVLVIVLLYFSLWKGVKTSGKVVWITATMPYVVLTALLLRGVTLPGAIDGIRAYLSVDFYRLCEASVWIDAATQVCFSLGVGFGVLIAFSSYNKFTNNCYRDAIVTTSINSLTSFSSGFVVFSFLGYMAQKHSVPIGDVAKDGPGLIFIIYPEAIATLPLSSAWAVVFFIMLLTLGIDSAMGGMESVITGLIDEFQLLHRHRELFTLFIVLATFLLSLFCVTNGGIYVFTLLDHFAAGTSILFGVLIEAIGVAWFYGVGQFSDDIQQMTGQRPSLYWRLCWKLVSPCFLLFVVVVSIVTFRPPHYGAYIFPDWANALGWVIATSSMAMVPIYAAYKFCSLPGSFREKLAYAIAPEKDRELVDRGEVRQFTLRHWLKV
Chain of Estrogen receptor beta (Q92731 whole entry): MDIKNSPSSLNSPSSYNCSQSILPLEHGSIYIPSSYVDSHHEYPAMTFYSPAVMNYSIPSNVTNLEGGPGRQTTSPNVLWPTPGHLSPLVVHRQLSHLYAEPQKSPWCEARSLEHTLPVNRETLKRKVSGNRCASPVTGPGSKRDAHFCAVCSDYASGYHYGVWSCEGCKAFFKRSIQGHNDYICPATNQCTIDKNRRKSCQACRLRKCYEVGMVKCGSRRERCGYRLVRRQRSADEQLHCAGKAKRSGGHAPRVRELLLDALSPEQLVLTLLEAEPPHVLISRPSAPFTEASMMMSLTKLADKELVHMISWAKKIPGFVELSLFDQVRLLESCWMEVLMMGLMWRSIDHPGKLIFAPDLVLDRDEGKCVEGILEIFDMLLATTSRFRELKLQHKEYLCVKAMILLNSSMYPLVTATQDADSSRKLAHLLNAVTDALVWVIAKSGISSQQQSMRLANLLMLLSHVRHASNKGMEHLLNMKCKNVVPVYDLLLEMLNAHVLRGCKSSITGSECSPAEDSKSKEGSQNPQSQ
Chain of Kappa-type opioid receptor (P41145 whole entry): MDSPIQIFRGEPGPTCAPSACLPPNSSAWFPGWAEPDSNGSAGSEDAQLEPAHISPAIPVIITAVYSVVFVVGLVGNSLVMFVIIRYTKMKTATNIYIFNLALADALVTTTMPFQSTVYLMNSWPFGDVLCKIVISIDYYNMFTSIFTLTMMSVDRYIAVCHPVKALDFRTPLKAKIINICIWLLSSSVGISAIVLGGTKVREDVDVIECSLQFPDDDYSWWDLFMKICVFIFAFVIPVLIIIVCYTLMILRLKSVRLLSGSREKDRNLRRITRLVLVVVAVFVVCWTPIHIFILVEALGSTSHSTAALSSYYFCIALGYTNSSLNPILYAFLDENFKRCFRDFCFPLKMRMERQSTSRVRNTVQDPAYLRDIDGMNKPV

CO[C@H]1O[C@@H]2O[C@@]3(C)CC[C@H]4[C@H](C)CC[C@@H]([C@H]1C)[C@@]24OO3
Not Active: IC50 [1] | IC50 [2] | IC50 [3] | IC50 [4] | IC50 [5] | IC50 [6] | IC50 [7] | Ki [7] | IC50 [8]

Nc1nc(F)nc2c1ncn2[C@@H]1O[C@H](CO)[C@@H](O)[C@@H]1O [FLUDARABINE]
Not Active: IC50 [1] | IC50 [2] | IC50 [3] | IC50 [4] | IC50 [5] | IC50 [6] | IC50 [7] | Ki [7] | IC50 [8]

COC(=O)C[C@](O)(CCC(C)(C)O)C(=O)O[C@@H]1C(OC)=C[C@]23CCCN2CCc2cc4c(cc2[C@H]13)OCO4 [HARRINGTONINE]
Not Active: IC50 [1] | IC50 [2] | IC50 [3] | IC50 [4] | IC50 [5] | IC50 [6] | IC50 [7] | Ki [7] | IC50 [8]

CC12CCC(CC1=O)C2(C)C (centres undefined) [CAMPHOR]
Not Active: IC50 [1] | IC50 [2] | IC50 [3] | IC50 [4] | IC50 [5] | IC50 [6] | IC50 [7] | Ki [7] | IC50 [8]

O=C(O)CCc1nc(-c2ccccc2)c(-c2ccccc2)o1 [OXAPROZIN]
Not Active: IC50 [1] | IC50 [2] | IC50 [3] | IC50 [4] | IC50 [5] | IC50 [6] | IC50 [7] | Ki [7] | IC50 [8]

O=C1CN(/N=C/c2ccc([N+](=O)[O-])o2)C(=O)N1 [NITROFURANTOIN]
Not Active: IC50 [1] | IC50 [2] | IC50 [3] | IC50 [4] | IC50 [5] | IC50 [6] | IC50 [7] | Ki [7] | IC50 [8]

NCC(CC(=O)O)c1ccc(Cl)cc1 (centres undefined) [BACLOFEN]
Not Active: IC50 [1] | IC50 [2] | IC50 [3] | IC50 [4] | IC50 [5] | IC50 [6] | IC50 [7] | Ki [7] | IC50 [8]

C[C@@H]1[C@H](O)[C@@H](C)/C=C/C=C/C=C/C=C/C=C/C=C/C=C/[C@H](O[C@@H]2O[C@H](C)[C@@H](O)[C@H](N)[C@@H]2O)C[C@@H]2O[C@](O)(C[C@@H](O)C[C@@H](O)[C@H](O)CC[C@@H](O)C[C@@H](O)CC(=O)O[C@H]1C)C[C@H](O)[C@H]2C(=O)O [AMPHOTERICIN B]
Not Active: IC50 [1] | IC50 [2] | IC50 [3] | IC50 [4] | IC50 [5] | IC50 [6] | IC50 [7] | Ki [7] | IC50 [8]

CCN(CCO)CCCC(C)Nc1ccnc2cc(Cl)ccc12 (centres undefined) [HYDROXYCHLOROQUINE]
Not Active: IC50 [1] | IC50 [2] | IC50 [3] | IC50 [4] | IC50 [5] | IC50 [6] | IC50 [7] | Ki [7] | IC50 [8]

CC(C)(C#N)c1cc(Cn2cncn2)cc(C(C)(C)C#N)c1 [ANASTROZOLE]
Not Active: IC50 [1] | IC50 [2] | IC50 [3] | IC50 [4] | IC50 [5] | IC50 [6] | IC50 [7] | Ki [7] | IC50 [8]

OC[C@H]1O[C@@H]2O[C@H]3[C@H](O)[C@@H](O)[C@@H](O[C@H]4[C@H](O)[C@@H](O)[C@@H](O[C@H]5[C@H](O)[C@@H](O)[C@@H](O[C@H]6[C@H](O)[C@@H](O)[C@@H](O[C@H]7[C@H](O)[C@@H](O)[C@@H](O[C@H]1[C@H](O)[C@H]2O)O[C@@H]7CO)O[C@@H]6CO)O[C@@H]5CO)O[C@@H]4CO)O[C@@H]3CO [ALFADEX]
Not Active: IC50 [1] | IC50 [2] | IC50 [3] | IC50 [4] | IC50 [5] | IC50 [6] | IC50 [7] | Ki [7] | IC50 [8]
